# From patent US20250002464A1, “NOVEL COMPOUND AND PHARMACEUTICAL COMPOSITION COMPRISING SAME” (SAPIENSBIO INC., priority 2021, published 2025)
# Tested on: α-SMA
# Assay: α-SMA expression inhibitory ability in MRC5 cell line (Western blotting)
# Type: cell-based
# Conditions: TGF-β1 (10 ng/mL), 72 hours, relative to TGF-β1 only
# Experimental: Subsequently, the inhibitory effect on pulmonary fibrosis of the compounds according to the present invention was overall evaluated. An MRC5 cell line was treated with each compound at 10 μM, and 2 hours later, treated with TGF-β1 (10 ng/mL). After 72 hours, the cells were lysed using RIPA Buffer, and then an α-SMA protein level was measured through Western blotting. The α-SMA expression level when treating the cells with each compound and TGF-β1 compared to the α-SMA expression level when treating the cells only with TGF-β1 without the compound was calculated as the α-SMA expression inhibitory ability of the corresponding compound. The α-SMA expression inhibitory ability of each compound is summarized in Table 2 below (A: inhibitory ability≥70%, B: 50%: inhibitory ability<70%, C: inhibitory ability<50%).
row,SMILES,inhibition at 10 µM
1,"O=C(CN1CCCCC1)N1CCN(c2ccccc2Cl)c2ccccc21 [Compound 132, 1-(4-(2-chlorophenyl)-3,4-dihydroquinoxaline-1(2H)-yl)-2-(piperidin-1-yl)ethan-1-one]",50 to 70%
2,"O=C(CCN1CCN2CCCC2C1)N1CCN(c2ccc(F)cc2)c2ccccc21 (stereo not drawn) [Compound 20, 1-(4-(4-fluorophenyl)-3,4-dihydroquinoxaline-1(2H)-yl)-3-(hexahydropyrrolo[1,2-a]pyrazin-2(1H)-yl)propan-1-one]",50 to 70%
3,"O=C(CN1CCCC1)N1CCN(c2ccccc2Cl)c2ccccc21 [Compound 131, 1-(4-(2-chlorophenyl)-3,4-dihydroquinoxaline-1(2H)-yl)-2-(pyrrolidin-1-yl)ethan-1-one]",50 to 70%
4,"O=C(CN1CCCC1)N1CCN(C2CCCCC2)c2ccccc21 [Compound 193, 1-(4-cyclohexyl-3,4-dihydroquinoxaline-1(2H)-yl)-2-(pyrrolidin-1-yl)ethan-1-one]",< 50%
5,"O=C(CCN1CC[C@H](O)C1)N1CCN(c2ccc(F)cc2)c2cc(F)ccc21 [Compound 44, (S)-1-(6-fluoro-4-(4-fluorophenyl)-3,4-dihydroquinoxaline-1(2H)-yl)-3-(3-hydroxypyrrolidin-1-yl)propan-1-one]",≥ 70%
6,"CC(C(=O)N1CCN(c2ccc(F)cc2)c2cc(F)ccc21)N1CCCC1 (stereo not drawn) [Compound 51, 1-(6-fluoro-4-(4-fluorophenyl)-3,4-dihydroquinoxaline-1(2H)-yl)-2-(pyrrolidin-1-yl)propan-1-one]",≥ 70%
7,"C[C@@H]1CCCCN1C(=O)CN1CCN(c2ccccc2)c2ccccc21 [Compound 70, (R)-1-(2-methylpiperidin-1-yl)-2-(4-phenyl-3,4-dihydroquinoxaline-1(2H)-yl)ethan-1-one]",50 to 70%
8,"CC(C(=O)N1CCN(C2CCCCC2)c2ccccc21)N1CCCCC1 (stereo not drawn) [Compound 191, 1-(4-cyclohexyl-3,4-dihydroquinoxaline-1(2H)-yl)-2-(piperidin-1-yl)propan-1-one]",50 to 70%
9,"CN1CCN(CCC(=O)N2CCN(Cc3ccccc3)c3ccccc32)CC1 [Compound 80, 1-(4-benzyl-3,4-dihydroquinoxaline-1(2H)-yl)-3-(4-methylpiperazin-1-yl)propan-1-one]",50 to 70%
10,"CC(C(=O)N1CCN(Cc2cccc(Cl)c2)c2ccccc21)N1CCN(C)CC1 (stereo not drawn) [Compound 101, 1-(4-(3-chlorobenzyl)-3,4-dihydroquinoxaline-1(2H)-yl)-2-(4-methylpiperazin-1-yl)propan-1-one]",50 to 70%
11,"CN1CCN(CCC(=O)N2CCN(c3ccccc3Cl)c3ccccc32)CC1 [Compound 127, 1-(4-(2-chlorophenyl)-3,4-dihydroquinoxaline-1(2H)-yl)-3-(4-methylpiperazin-1-yl)propan-1-one]",50 to 70%
12,"O=C(CCN1CCCC1)N1CCN(C2CCCCC2)c2ccccc21 [Compound 186, 1-(4-cyclohexyl-3,4-dihydroquinoxaline-1(2H)-yl)-3-(pyrrolidin-1-yl)propan-1-one]",50 to 70%
13,"O=C(CN1CCCCC1)N1CCN(Cc2ccccc2Cl)c2ccccc21 [Compound 94, 1-(4-(2-chlorobenzyl)-3,4-dihydroquinoxaline-1(2H)-yl)-2-(piperidin-1-yl)ethan-1-one]",50 to 70%
14,"CC(C(=O)N1CCN(C(=O)c2ccccc2)c2ccccc21)N1CCCC1 (stereo not drawn) [Compound 199, 1-(4-benzoyl-3,4-dihydroquinoxaline-1(2H)-yl)-2-(pyrrolidin-1-yl)propan-1-one]",< 50%
15,"CC(C(=O)N1CCN(c2cccc(Cl)c2)c2ccccc21)N1CCCC1 (stereo not drawn) [Compound 136, 1-(4-(3-chlorophenyl)-3,4-dihydroquinoxaline-1(2H)-yl)-2-(pyrrolidin-1-yl)propan-1-one]",≥ 70%
16,"N[C@H](Cc1c[nH]cn1)C(=O)N1CCN(c2ccc(F)cc2)c2cc(F)ccc21 [Compound 48, (R)-2-amino-1-(6-fluoro-4-(4-fluorophenyl)-3,4-dihydroquinoxaline-1(2H)-yl)-3-(1H-imidazol-4-yl)propan-1-one]",< 50%
17,"CC(C)CN1CCN(C(=O)C(C)N2CCCCC2)c2ccccc21 (stereo not drawn) [Compound 172, 1-(4-isobutyl-3,4-dihydroquinoxaline-1(2H)-yl)-2-(piperidin-1-yl)propan-1-one]",< 50%
18,"O=C(CCN1CCCCC1)N1CCN(Cc2ccncc2)c2ccccc21 [Compound 123, 3-(piperidin-1-yl)-1-(4-(pyridin-4-ylmethyl)-3,4-dihydroquinoxaline-1(2H)-yl)propan-1-one]",< 50%
19,"CC(C(=O)N1CCN(Cc2ccccc2)c2ccccc21)N1CCN(C)CC1 (stereo not drawn) [Compound 83, 1-(4-benzyl-3,4-dihydroquinoxaline-1(2H)-yl)-2-(4-methylpiperazin-1-yl)propan-1-one]",50 to 70%
20,"CN1CCN(CCC(=O)N2CCN(c3cccc(Cl)c3)c3ccccc32)CC1 [Compound 135, 1-(4-(3-chlorophenyl)-3,4-dihydroquinoxaline-1(2H)-yl)-3-(4-methylpiperazin-1-yl)propan-1-one]",≥ 70%

row,SMILES,inhibition at 10 µM
1,"CN1CC[C@@H](NCCC(=O)N2CCN(c3ccc(F)cc3)c3ccccc32)C1 [Compound 26, (R)-1-(4-(4-fluorophenyl)-3,4-dihydroquinoxaline-1(2H)-yl)-3-((1-methylpyrrolidin-3-yl)amino)propan-1-one]",≥ 70%
2,"O=C(CN1CCCCC1)N1CCN(Cc2cccc(Cl)c2)c2ccccc21 [Compound 103, 1-(4-(3-chlorobenzyl)-3,4-dihydroquinoxaline-1(2H)-yl)-2-(piperidin-1-yl)ethan-1-one]",50 to 70%
3,"O=C(CN1CCCCC1)N1CCN(C(=O)c2ccccc2)c2ccccc21 [Compound 203, 1-(4-benzoyl-3,4-dihydroquinoxaline-1(2H)-yl)-2-(piperidin-1-yl)ethan-1-one]",< 50%
4,"CN1CCN(CCC(=O)N2CCN(CC3CC3)c3ccccc32)CC1 [Compound 163, 1-(4-(cyclopropylmethyl)-3,4-dihydroquinoxaline-1(2H)-yl)-3-(4-methylpiperazin-1-yl)propan-1-one]",< 50%
5,"C[C@@H]1CCCN1CCC(=O)N1CCN(c2ccccc2)c2cc(F)ccc21 [Compound 5, (R)-1-(6-fluoro-4-phenyl-3,4-dihydroquinoxaline-1(2H)-yl)-3-(2-methylpyrrolidin-1-yl)propan-1-one]",< 50%
6,"C[C@@H]1CCCCN1CCC(=O)N1CCN(c2ccc(F)cc2)c2ccccc21 [Compound 19, (R)-1-(4-(4-fluorophenyl)-3,4-dihydroquinoxaline-1(2H)-yl)-3-(2-methylpiperidin-1-yl)propan-1-one]",< 50%
7,"CN1CCN(C(=O)CN2CCN(c3ccccc3)c3ccccc32)CC1 [Compound 73, 1-(4-methylpiperazin-1-yl)-2-(4-phenyl-3,4-dihydroquinoxaline-1(2H)-yl)ethan-1-one]",50 to 70%
8,"CN1CCN(CCCN2CCN(c3ccc(F)cc3)c3ccccc32)CC1 [Compound 30, 1-(4-fluorophenyl)-4-(3-(4-methylpiperazin-1-yl)propyl)-1,2,3,4-tetrahydroquinoxaline]",≥ 70%
9,"O=C(CCN1CCCC1)N1CCN(c2ccncc2)c2ccccc21 [Compound 158, 1-(4-(pyridin-4-yl)-3,4-dihydroquinoxaline-1(2H)-yl)-3-(pyrrolidin-1-yl)propan-1-one]",< 50%
10,"CC(C(=O)N1CCN(C(C)C)c2ccccc21)N1CCCCC1 (stereo not drawn) [Compound 181, 1-(4-isopropyl-3,4-dihydroquinoxaline-1(2H)-yl)-2-(piperidin-1-yl)propan-1-one]",< 50%
11,"O=C(CCN1CCCC1)N1CCN(Cc2ccncc2)c2ccccc21 [Compound 122, 1-(4-(pyridin-4-ylmethyl)-3,4-dihydroquinoxaline-1(2H)-yl)-3-(pyrrolidin-1-yl)propan-1-one]",50 to 70%
12,"CC(C)N1CCN(C(=O)CN2CCCCC2)c2ccccc21 [Compound 184, 1-(4-isopropyl-3,4-dihydroquinoxaline-1(2H)-yl)-2-(piperidin-1-yl)ethan-1-one]",< 50%
13,"CN1CCN(CC(=O)N2CCN(c3ccccc3Cl)c3ccccc32)CC1 [Compound 133, 1-(4-(2-chlorophenyl)-3,4-dihydroquinoxaline-1(2H)-yl)-2-(4-methylpiperazin-1-yl)ethan-1-one]",50 to 70%
14,"O=C(CCN1CCCC1)N1CCN(c2ccc(F)cc2)c2cc(F)ccc21 [Compound 36, 1-(6-fluoro-4-(4-fluorophenyl)-3,4-dihydroquinoxaline-1(2H)-yl)-3-(pyrrolidin-1-yl)propan-1-one]",≥ 70%
15,"O=C(CCN1CCN(C2CC2)CC1)N1CCN(c2ccc(F)cc2)c2cc(F)ccc21 [Compound 43, 3-(4-cyclopropylpiperazin-1-yl)-1-(6-fluoro-4-(4-fluorophenyl)-3,4-dihydroquinoxaline-1(2H)-yl)propan-1-one]",< 50%
16,"O=C(CN1CCCCC1)N1CCN(C2CCCCC2)c2ccccc21 [Compound 194, 1-(4-cyclohexyl-3,4-dihydroquinoxaline-1(2H)-yl)-2-(piperidin-1-yl)ethan-1-one]",< 50%
17,"O=C(CN1CCCC1)N1CCN(C(=O)c2ccccc2)c2ccccc21 [Compound 202, 1-(4-benzoyl-3,4-dihydroquinoxaline-1(2H)-yl)-2-(pyrrolidin-1-yl)ethan-1-one]",< 50%
18,"CC(C(=O)N1CCN(c2ccc(Cl)cc2)c2ccccc21)N1CCN(C)CC1 (stereo not drawn) [Compound 145, 1-(4-(4-chlorophenyl)-3,4-dihydroquinoxaline-1(2H)-yl)-2-(4-methylpiperazin-1-yl)propan-1-one]",≥ 70%
19,O=C(CN1CCCC1)N1CCN(c2ccccn2)c2ccccc21 [Compound 152],≥ 70%
